In patent US10167279B2 (NOVARTIS AG, priority 2014, dated 2019):

The compounds below were run against C-Raf FL (Homo sapiens (Human), UniProt P04049, Y340E/Y341E) (assay: In vitro Raf activity determination (Alpha Screen, phospho-MEK), C-Raf FL (full length, Y340E/Y341E)). Settings: ATP 1 μM; 60 min pre-incubation; 1 hour reaction; column head does not say FL or TR.
Type: biochemical
Summary of the method: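 Read-out is AlphaScreen luminescence using rabbit anti-p-MEK with protein A beads after EDTA stop, with IC50 fitted by non-linear regression. Reaction: Sf9-derived C-Raf plus biotinylated E. coli MEK1 K97R substrate, pH 7.5 Tris/MgCl2/DTT buffer, compound preincubated 60 min at room temperature.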

Sequence of C-Raf FL (P04049 whole entry Y340E/Y341E): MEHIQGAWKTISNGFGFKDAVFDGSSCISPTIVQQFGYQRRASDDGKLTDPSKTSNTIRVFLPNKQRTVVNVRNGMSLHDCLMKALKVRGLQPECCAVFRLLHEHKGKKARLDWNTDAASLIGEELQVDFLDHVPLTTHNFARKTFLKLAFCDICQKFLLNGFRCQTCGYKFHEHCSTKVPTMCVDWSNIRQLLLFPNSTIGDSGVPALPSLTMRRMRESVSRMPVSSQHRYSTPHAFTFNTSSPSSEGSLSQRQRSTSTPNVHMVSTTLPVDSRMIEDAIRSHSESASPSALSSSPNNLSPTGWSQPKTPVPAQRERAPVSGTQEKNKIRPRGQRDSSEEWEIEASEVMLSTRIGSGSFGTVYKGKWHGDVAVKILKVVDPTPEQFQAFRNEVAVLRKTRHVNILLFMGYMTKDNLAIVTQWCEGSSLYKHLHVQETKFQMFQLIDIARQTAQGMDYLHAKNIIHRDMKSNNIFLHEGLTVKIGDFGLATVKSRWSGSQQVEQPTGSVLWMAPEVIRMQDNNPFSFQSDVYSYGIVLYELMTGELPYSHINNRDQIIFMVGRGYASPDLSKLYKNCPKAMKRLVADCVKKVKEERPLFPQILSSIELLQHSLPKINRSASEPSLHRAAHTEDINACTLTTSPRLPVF
Sequence of C-Raf FL (P63104 whole entry partner): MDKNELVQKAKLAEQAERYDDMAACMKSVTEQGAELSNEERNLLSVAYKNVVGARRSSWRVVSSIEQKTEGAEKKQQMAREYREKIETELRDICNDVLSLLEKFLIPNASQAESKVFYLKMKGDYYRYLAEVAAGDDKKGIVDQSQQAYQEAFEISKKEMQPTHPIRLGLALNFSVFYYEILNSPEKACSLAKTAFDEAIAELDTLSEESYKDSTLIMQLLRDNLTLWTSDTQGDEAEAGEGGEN

| Structure (SMILES) | IC50 [nM] |
| --- | --- |
| Cc1ccc(NC(=O)c2ccnc(C(F)(F)F)c2)cc1-c1cc(N2CCOC2=O)nc(C2(O)CCOCC2)c1 [Example 286, N-(3-(2-(4-hydroxytetrahydro-2H-pyran-4-yl)-6-(2-oxooxazolidin-3-yl)pyridin-4-yl)-4-methylphenyl)-2-(trifluoromethyl)isonicotinamide] | 0.297 |
| Cc1ccc(NC(=O)c2cc(C(F)(F)F)c(Cl)cn2)cc1-c1cc(OCCO)nc(C2CCOCC2)c1 [Example 266, 5-chloro-N-(3-(2-(2-hydroxyethoxy)-6-(tetrahydro-2H-pyran-4-yl)pyridin-4-yl)-4-methylphenyl)-4-(trifluoromethyl) picolinamide] | 2 |
| CCOc1ncc(-c2cc(NC(=O)c3cccc(C(F)(F)F)c3)cnc2C)cc1C1(F)CCOC1 (stereo not drawn) [Example 297, N-(6′-ethoxy-5′-(3-fluorotetrahydro-furan-3-yl)-2-methyl-[3,3′-bipyridin]-5-yl)-3-(trifluoro-methyl)benzamide] | 1 |
| Cc1ccc(NC(=O)c2ccnc(C(F)F)c2)cc1-c1cc(OCCO)nc(C2(F)COC2)c1 [Example 53] | 0.624 |
| CCOc1nnc(-c2cc(NC(=O)c3ccc4c(c3)CNC4)ccc2C)cc1C1CCOCC1 [Example 285, N-(3-(6-ethoxy-5-(tetrahydro-2H-pyran-4-yl)pyridazin-3-yl)-4-methylphenyl) isoindoline-5-carboxamid] | 0.9 |
| Cc1ccc(NC(=O)c2cc(C(F)(F)F)ccn2)cc1-c1cc(OCCO)nc(C2CCOCC2O)c1 (single isomer, unassigned) [Example 248] | 0.7 |
| COc1ncc(-c2cc(NC(=O)c3cc(C(F)(F)F)cc(C(C)(C)N)n3)ccc2C)cc1C1(O)COC1 [Example 19, 6-(2-aminopropan-2-yl)-N-(3-(5-(3-hydroxyoxetan-3-yl)-6-methoxypyridin-3-yl)-4-methylphenyl)-4-(trifluoromethyl)picolinamide] | 7 |
| Cc1ccc(NC(=O)c2ccnc(C(C)(C)C#N)c2)cc1-c1cc(NCCO)nc(C2CCOCC2)c1 [Example 175, 2-(2-cyanopropan-2-yl)-N-(3-(2-((2-hydroxyethyl)amino)-6-(tetrahydro-2H-pyran-4-yl)pyridin-4-yl)-4-methylphenyl) isonicotinamide] | 0.83 |
| Cc1ccc(NC(=O)c2ccnc(C(C)(C)F)c2)cc1-c1cc(OCCO)nc(C2CCOCC2O)c1 (stereo not drawn) [Example 244, 2-(2-fluoropropan-2-yl)-N-(3-(2-(2-hydroxyethoxy)-6-(3-hydroxytetrahydro-2H-pyran-4-yl)pyridin-4-yl)-4-methylphenyl) isonicotinamide] | 3 |
| Cc1ccc(NC(=O)c2cc(C(F)(F)F)ccn2)cc1-c1cc(OCCO)nc(C2CCOCC2O)c1 (stereo not drawn) [Example 247] | 0.4 |
| Cc1ccc(NC(=O)c2ccnc(C(C)(F)F)c2)cc1-c1cc(OCCO)nc(C2CCOCC2O)c1 (stereo not drawn) [Example 243, 2-(1,1-difluoroethyl)-N-(3-(2-(2-hydroxyethoxy)-6-(3-hydroxytetrahydro-2H-pyran-4-yl)pyridin-4-yl)-4-methylphenyl) isonicotinamide] | 1 |
| Cc1ncc(NC(=O)c2ccnc(C(C)(C)C#N)c2)cc1-c1cc(C2(O)COC2)cc(C2(F)COC2)c1 [Example 143, 2-(2-cyanopropan-2-yl)-N-(5-(3-(3-fluorooxetan-3-yl)-5-(3-hydroxyoxetan-3-yl)phenyl)-6-methylpyridin-3-yl)isonicotinamide] | 4.36 |
| Cc1ccc(NC(=O)c2ccnc(C(C)(C)C#N)c2)cc1-c1cc(C2CCOCC2)nc(N(CCO)CCO)c1 [Example 179, N-(3-(2-(bis(2-hydroxyethyl)amino)-6-(tetrahydro-2H-pyran-4-yl)pyridin-4-yl)-4-methylphenyl)-2-(2-cyanopropan-2-yl) isonicotinamide] | 0.795 |
| Cc1ccc(NC(=O)c2cc(C(F)(F)F)ccn2)cc1-c1cc(OCCO)nc(C2(C)CCOCC2)c1 [Example 209, N-(3-(2-(2-hydroxyethoxy)-6-(4-methyltetrahydro-2H-pyran-4-yl)pyridin-4-yl)-4-methylphenyl)-4-(trifluoromethyl) picolinamide] | 0.2 |
| Cc1ccc(NC(=O)c2cc(C(F)(F)F)ccn2)cc1-c1cc2c(c(C3CCOCC3)c1)OC(C)(C)C(=O)N2 [Example 199, N-(3-(2,2-dimethyl-3-oxo-8-(tetrahydro-2H-pyran-4-yl)-3,4-dihydro-2H-benzo[b][1,4]oxazin-6-yl)-4-methylphenyl)-4-(trifluoromethyl) picolinamide] | 1 |
| CCOc1ncc(-c2cc(NC(=O)c3ccnc(C(C)(C)C#N)c3)ccc2C)cc1C1(C#N)CCOC1 (stereo not drawn) [Example 169, 2-(2-cyanopropan-2-yl)-N-(3-(5-(3-cyanotetrahydrofuran-3-yl)-6-ethoxypyridin-3-yl)-4-methylphenyl) isonicotinamide] | 2 |

The next compounds have a lower IC50 than those just listed; values first:

| IC50 [nM] | Structure (SMILES) |
| --- | --- |
| 0.103 | COC1(c2cc(-c3cc(NC(=O)c4ccnc(C(F)(F)F)c4)ccc3C)cnc2OCCO)COC1 [Example 59, N-(3-(6-(2-hydroxyethoxy)-5-(3-methoxyoxetan-3-yl)pyridin-3-yl)-4-methylphenyl)-2-(trifluoromethyl)isonicotin-amide] |
| 0.1 | COCCOc1nnc(-c2cc(NC(=O)c3ccnc(C(F)(F)F)c3)ccc2C)cc1C1CCOCC1 [Example 315, N-(3-(6-(2-methoxyethoxy)-5-(tetrahydro-2H-pyran-4-yl)pyridazin-3-yl)-4-methylphenyl)-2-(trifluoromethyl) isonicotinamide] |
| 0.1 | CCOc1nnc(-c2cc(NC(=O)c3cnc(N4CCN(CC)CC4)c(C(F)(F)F)c3)ccc2C)cc1C1CCOCC1 [Example 241, N-(3-(6-ethoxy-5-(tetrahydro-2H-pyran-4-yl)pyridazin-3-yl)-4-methylphenyl)-6-(4-ethylpiperazin-1-yl)-5-(trifluoromethyl) nicotinamide] |
| 0.08 | CCOc1nnc(-c2cc(NC(=O)c3cccc(C(F)(F)F)c3)cnc2C)cc1C1CCOCC1 [Example 234, N-(5-(6-ethoxy-5-(tetrahydro-2H-pyran-4-yl)pyridazin-3-yl)-6-methylpyridin-3-yl)-3-(trifluoromethyl) benzamide] |
| 0.07 | Cc1ccc(NC(=O)c2cc(C(F)(F)F)ccn2)cc1-c1cc2c(c(C3CCOCC3)c1)NC(=O)C(C)(CO)O2 (single isomer, unassigned) [Example 194, N-(3-(2-(hydroxymethyl)-2-methyl-3-oxo-5-(tetrahydro-2H-pyran-4-yl)-3,4-dihydro-2H-benzo [b][1,4]oxazin-7-yl)-4-methylphenyl)-4-(trifluoromethyl) picolinamide carboxamide] |
| 0.07 | Cc1ccc(NC(=O)c2ccnc(C#N)c2)cc1-c1cc(OC[C@H](O)CO)nc(C2CCOCC2)c1 [Example 279, (R)-2-cyano-N-(3-(2-(2,3-dihydroxypropoxy)-6-(tetrahydro-2H-pyran-4-yl)pyridin-4-yl)-4-methylphenyl) isonicotinamide] |
| 0.07 | Cc1ccc(NC(=O)c2ccnc(Cl)c2)cc1-c1cc(OC[C@H](O)CO)nc(C2CCOCC2)c1 [Example 280, (R)-2-chloro-N-(3-(2-(2,3-dihydroxypropoxy)-6-(tetrahydro-2H-pyran-4-yl)pyridin-4-yl)-4-methylphenyl) isonicotinamide] |
| 0.06 | Cc1ccc(NC(=O)c2cc(C(F)(F)F)ncn2)cc1-c1cc(OC[C@H](O)CO)nc(C2CCOCC2)c1 [Example 276, (R)-N-(3-(2-(2,3-dihydroxypropoxy)-6-(tetrahydro-2H-pyran-4-yl)pyridin-4-yl)-4-methylphenyl)-6-(trifluoromethyl) pyrimidine-4-carboxamide] |
| 0.05 | Cc1ccc(NC(=O)c2ccnc(C(F)(F)F)c2)cc1-c1cc(C2CCOCC2)c(NC[C@H](C)O)nn1 [Example 311, (S)-N-(3-(6-((2-hydroxypropyl)amino)-5-(tetrahydro-2H-pyran-4-yl)pyridazin-3-yl)-4-methylphenyl)-2-(trifluoromethyl) isonicotinamide] |
| 0.04 | CCOc1nnc(-c2cc(NC(=O)c3cc(C(F)(F)F)cnn3)ccc2C)cc1C1CCOCC1 [Example 240, N-(3-(6-ethoxy-5-(tetrahydro-2H-pyran-4-yl)pyridazin-3-yl)-4-methylphenyl)-5-(trifluoromethyl) pyridazine-3-carboxamide] |
| 0.03 | Cc1ccc(NC(=O)c2cc(C(F)(F)F)cnn2)cc1-c1cc(OC[C@H](O)CO)nc(C2CCOCC2)c1 [Example 274] |
| 0.03 | Cc1ccc(NC(=O)c2ccnc(C(C)(F)F)c2)cc1-c1cc(OCCO)nc(C2CCOCC2)c1 [Example 269, 2-(1,1-difluoroethyl)-N-(3-(2-(2-hydroxyethoxy)-6-(tetrahydro-2H-pyran-4-yl)pyridin-4-yl)-4-methylphenyl) isonicotinamide] |
| 0.03 | Cc1ccc(NC(=O)c2cc(C(F)(F)F)cnn2)cc1-c1cc2c(c(C3CCOCC3)c1)NC(=O)C(C)(CO)O2 (stereo not drawn) [Example 195, N-(3-(2-(hydroxymethyl)-2-methyl-3-oxo-5-(tetrahydro-2H-pyran-4-yl)-3,4-dihydro-2H-benzo [b][1,4]oxazin-7-yl)-4-methylphenyl)-5-(trifluoromethyl) pyridazine-3-carboxamide] |
| 0.02 | CCOc1nnc(-c2cc(NC(=O)c3ccnc(C(C)(F)F)c3)ccc2C)cc1C1CCOCC1 [Example 225, 2-(1,1-difluoroethyl)-N-(3-(6-ethoxy-5-(tetrahydro-2H-pyran-4-yl)pyridazin-3-yl)-4-methylphenyl) isonicotinamide] |
